This assay deals with T1, SCD1 (Rattus norvegicus, UniProt P07308).
T1 construct: from tissue; host or cells: liver microsomes of male Wistar rats fed a carbohydrate-rich, low-fat diet
T1 sequence (P07308 1-358): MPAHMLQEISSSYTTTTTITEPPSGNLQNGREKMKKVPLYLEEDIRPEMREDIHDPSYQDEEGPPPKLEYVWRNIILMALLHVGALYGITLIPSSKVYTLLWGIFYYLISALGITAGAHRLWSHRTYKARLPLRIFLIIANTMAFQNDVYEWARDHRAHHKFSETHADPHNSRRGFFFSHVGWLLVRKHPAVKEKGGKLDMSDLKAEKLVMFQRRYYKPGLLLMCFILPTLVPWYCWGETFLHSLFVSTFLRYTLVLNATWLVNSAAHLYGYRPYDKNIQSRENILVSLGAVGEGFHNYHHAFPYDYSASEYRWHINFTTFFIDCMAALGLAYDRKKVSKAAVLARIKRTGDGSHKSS
The assay can be described thus: Stearoyl-CoA desaturase (SCD1) activity assay with rat liver microsomes, TLC with 1-14C-labeled stearic acid. In kind it is biochemical. The following applies: for IC50: SCD1 activity; for inhibition at 10 µM: inhibition of SCD1 activity at 10 μM/l. Here is the method: The efficacy of the inventive compounds of the formula I was tested with microsomal enzymes in the following assay system:
The livers of male Wistar rats which (to induce the expression of SCD1) had been fed with a carbohydrate-rich, low-fat diet were homogenized with a Potter tissue homogenizer and differential centrifugation in a buffer which contained 250 mM/l of sucrose and 5 mM/l of HEPES (pH 7.0). The resuspended microsome fraction was stored at −80° C. The stearoyl-CoA desaturase activity was determined in a thin-film chromatography assay with 1-^14C-labeled stearic acid. In short, the particular inventive compounds (in DMSO in a final concentration of 1% [v/v]) were incubated with 15 μg of the rat liver microsomes in 200 μl of assay buffer (6 mM/l of MgCl2, 250 mM/l of sucrose, 150 mM/l of KCl, 40 mM/l of NaF, 100 mM/l of Na2HPO4 (pH7.4), 1.3 mM/l of ATP, 1.5 mM/l of reduced glutathione, 60 uM/l of CoA, 0.33 mM/l of nicotinamide and 0.94 mM/l of NADH) at room temperature for 10 min. 0.5 μCi [1-^14C]-stearic acid (55 mCi/mmol) was added, and the mixture was incubated at 37° C. for 1 h. The radioactively labeled fatty acids were subsequently hydrolyzed at 65° C. with 2.5 M KOH/MeOH:H2O (4:1) for 4 h, protonated with 280 μl of formic acid and extracted with 500 μl of hexane. The TLC plates were immersed into 10% AgNO3 and heat-activated before use. 150 μl of the hexane phase were applied to the plates, and the TLC plates were developed in buffer (chloroform:methanol:acetic acid:water [90:8:1:0.8]) and dried. The plates were read off in a phosphoimager to quantify the SCD1 activity.
The person skilled in the art can modify this assay in various aspects to determine the inhibition of the stearoyl-CoA desaturase activity.
In general terms: Liver microsomes are a subcellular fraction often used to study metabolism.

The record followed here is patent US8673917B2, “2-heteroaryl-pyrrolo [3,4-C]pyrrole derivatives, and use thereof as SCD inhibitors” (Sanofi, priority 2008, dated 2014).

Where a name gives a salt, the structure may show the parent alone.

As to `O=C(c1ccccc1C(F)(F)F)N1CC2=C(C1)CN(c1ccc(OCc3ccccc3)cn1)C2` [Example 1, [5-(5-Benzyloxypyridin-2-yl)-3,4,5,6-tetrahydro-1H-pyrrolo[3,4-c]pyrrol-2-yl](2-trifluoromethylphenyl)methanone], the IC50 stood at 133 nM and the inhibition at 10 µM was 80%.

Compound `O=C(c1ccccc1C(F)(F)F)N1CC2=C(C1)CN(c1ccc(OCc3nccs3)nn1)C2` [Example 2, {5-[6-(Thiazol-2-ylmethoxy)pyridazin-3-yl]-3,4,5,6-tetrahydro-1H-pyrrolo[3,4-c]pyrrol-2-yl}-(2-trifluoromethylphenyl)methanone] returned a 50% inhibitory concentration (IC50) of 795 nM and an inhibition at 10 µM of 86%.

For the compound `O=C(c1ccccc1C(F)(F)F)N1CC2=C(C1)CN(c1ccc(OCc3ccccc3)nn1)C2` [Example 3, [5-(6-Benzyloxpyridazin-3-yl)-3,4,5,6-tetrahydro-1H-pyrrolo[3,4-c]pyrrol-2-yl](2-trifluoromethylphenyl)methanone], half-maximal inhibition (IC50) required 7.18 nM and the inhibition at 10 µM was determined as 100%.

With `O=C(c1ccccc1C(F)(F)F)N1CC2=C(C1)CN(c1ccc(OCCc3ccccc3)nn1)C2` [Example 4, [5-(6-Phenethyloxypyridazin-3-yl)-3,4,5,6-tetrahydro-1H-pyrrolo[3,4-c]pyrrol-2-yl](2-trifluoromethylphenyl)methanone trifluoroacetate], half-maximal inhibition (IC50) required 43.4 nM. In other words, the double-digit nanomolar range.

Compound `O=C(c1ccccc1C(F)(F)F)N1CC2=C(C1)CN(c1ccc(OCCC3CC3)nn1)C2` [Example 5, {5-[6-(2-Cyclopropylethoxy)pyridazin-3-yl]-3,4,5,6-tetrahydro-1H-pyrrolo[3,4-c]pyrrol-2-yl}-(2-trifluoromethylphenyl)methanone trifluoroacetate] displayed an IC50 of 213 nM.

Compound `O=C(c1ccccc1C(F)(F)F)N1CC2=C(C1)CN(c1ccc(OCc3cscn3)nn1)C2` [Example 6, {5-[6-(Thiazol-4-ylmethoxy)pyridazin-3-yl]-3,4,5,6-tetrahydro-1H-pyrrolo[3,4-c]pyrrol-2-yl}-(2-trifluoromethylphenyl)methanone trifluoroacetate] yielded an IC50 of 483 nM. This IC50 is about 2.3-fold higher than that of the compound before.

`O=C(c1ccccc1C(F)(F)F)N1CC2=C(C1)CN(c1ccc(OCC3CCOCC3)nn1)C2` [Example 7, {5-[6-(Tetrahydropyran-4-ylmethoxy)pyridazin-3-yl]-3,4,5,6-tetrahydro-1H-pyrrolo[3,4-c]pyrrol-2-yl}-(2-trifluoromethylphenyl)methanone trifluoroacetate]: inhibition was half-maximal at 7120 nM (IC50).

Compound `O=C(c1ccccc1C(F)(F)F)N1CC2=C(C1)CN(c1ccc(OCc3ccccc3)nn1)C2` [Example 8, 5-(6-Benzyloxypyridazin-3-yl)-3,4,5,6-tetrahydro-1H-pyrrolo[3,4-c]pyrrol-2-yl](2-trifluoromethylphenyl)methanone hydrochloride] displayed an IC50 of 8.48 nM.

`O=C(c1ccccc1C(F)(F)F)N1CC2=C(C1)CN(c1ccc(OCc3ccccn3)nn1)C2` [Example 9, 5-[6-(Pyridin-2-ylmethoxy)pyridazin-3-yl]-3,4,5,6-tetrahydro-1H-pyrrolo[3,4-c]pyrrol-2-yl}-(2-trifluoromethylphenyl)methanone hydrochloride] showed an IC50 of 1340 nM.

For orientation: IC50 means the midpoint of a concentration-inhibition curve. A word on the inhibition: it is the relative decrease from the control value, in per cent. High values mean a response far below the control, low ones a response near the control.
